In ChEMBL document CHEMBL5241112, “Insights into the recent progress in the medicinal chemistry of pyranopyrimidine analogs” (RSC Med Chem, 2022):
In brackets after ≈: the same amount, converted by molar mass. Values belong to the molecule of their own block, whether it stands above or below them.

Assays:
[1] = test system: Klebsiella pneumoniae; assay: Antimicrobial activity against Klebsiella pneumoniae UC57 assessed as diameter of inhibition zone at 20 mg/ml incubated for 24 hrs by disk diffusion method; type: functional; details: read-out: DIZ
[2] = test system: Pseudomonas aeruginosa; assay: Antimicrobial activity against Pseudomonas aeruginosa ATCC 27853 assessed as diameter of inhibition zone at 20 mg/ml incubated for 24 hrs by disk diffusion method; type: functional; details: read-out: DIZ
[3] = test system: Staphylococcus aureus; assay: Antimicrobial activity against Staphylococcus aureus NCTC7447 assessed as diameter of inhibition zone at 20 mg/ml incubated for 24 hrs by disk diffusion method; type: functional; details: read-out: DIZ
[4] = test system: Bacillus cereus; assay: Antimicrobial activity against Bacillus cereus ATCC14579 assessed as diameter of inhibition zone at 20 mg/ml incubated for 24 hrs by disk diffusion method; type: functional; details: read-out: DIZ
[5] = test system: Escherichia coli; assay: Antimicrobial activity against Escherichia coli ATCC 14169 assessed as diameter of inhibition zone at 20 mg/ml incubated for 24 hrs by disk diffusion method; type: functional; details: read-out: DIZ
[6] = test system: MCF7; assay: Anticancer activity against human MCF7 cells assessed as reduction in cell viability; type: functional, cell-based
[7] = test system: Staphylococcus aureus; assay: Antibacterial activity against Staphylococcus aureus assessed as diameter of inhibition zone; type: functional
[8] = test system: Candida albicans; assay: Antifungal activity against Candida albicans assessed as inhibition of fungal growth; type: functional
[9] = test system: Salmonella typhimurium; assay: Antibacterial activity against Salmonella typhimurium assessed as diameter of inhibition zone; type: functional, Salmonella enterica subsp. enterica serovar Typhimurium
[10] = test system: Aspergillus flavus; assay: Antifungal activity against Aspergillus flavus assessed as inhibition of fungal growth; type: functional
[11] = test system: Escherichia coli; assay: Antibacterial activity against Escherichia coli assessed as inhibition of bacterial growth; type: functional
[12] = test system: Escherichia coli; assay: Antibacterial activity against Escherichia coli assessed as diameter of inhibition zone; type: functional
[13] = test system: Aspergillus niger; assay: Antifungal activity against Aspergillus niger assessed as inhibition of fungal growth; type: functional
[14] = test system: Bacillus subtilis; assay: Antibacterial activity against Bacillus subtilis assessed as diameter of inhibition zone; type: functional
[15] = biological target: Urease (Canavalia ensiformis, UniProt P07374); assay: Inhibition of jack bean urease by phenol red method
[16] = test system: Pseudomonas aeruginosa; assay: Antibacterial activity against Pseudomonas aeruginosa assessed as inhibition of bacterial growth; type: functional
[17] = test system: HCT-116; assay: cells; details: Homo sapiens
[18] = test system: HepG2; assay: Anticancer activity against human HepG2 cells assessed as reduction in cell viability; type: functional, cell-based
[19] = Inhibition of porcine pancreatic alpha-amylase preincubated for 10 mins followed by substrate starch addition and measured after 10 mins by colorimetric analysis; parameters: species or system Sus scrofa
[20] = test system: Klebsiella pneumoniae; assay: Antibacterial activity against Klebsiella pneumoniae MTCC 109 assessed as diameter of inhibition zone at 0.1 mg/ml incubated for 24 hrs by agar well diffusion method; type: functional; details: read-out: DIZ
[21] = biological target: Alpha-glucosidase (Saccharomyces cerevisiae S288c, UniProt P53341+P38158+P07265); assay: Inhibition of Saccharomyces cerevisiae alpha-glucosidase preincubated for 5 mins followed by PNP-GLUC substrate addition and measured after 20 mins by spectroscopic analysis; type: protein assay
[22] = test system: Escherichia coli; assay: Antibacterial activity against Escherichia coli MTCC 723 assessed as diameter of inhibition zone at 0.1 mg/ml incubated for 24 hrs by agar well diffusion method; type: functional; details: read-out: DIZ
[23] = test system: Pseudomonas aeruginosa; assay: Antibacterial activity against Pseudomonas aeruginosa MTCC 741 assessed as diameter of inhibition zone at 0.1 mg/ml incubated for 24 hrs by agar well diffusion method; type: functional; details: read-out: DIZ
[24] = biological target: Albumin (Bos taurus, UniProt P02769); assay: […] bovine serum albumin denaturation incubated for 23 mins by UV-Visible spectrophotometry
[25] = test system: Klebsiella pneumoniae; assay: Antibacterial activity against Klebsiella pneumoniae assessed as diameter of inhibition zone at 100 ug/ml by disc diffusion method; type: functional; details: read-out: DIZ
[26] = test system: Aspergillus flavus; assay: Antifungal activity against Aspergillus flavus assessed as diameter of inhibition zone at 100 ug/ml by agar disc diffusion method; type: functional; details: read-out: DIZ
[27] = test system: Staphylococcus aureus; assay: Antibacterial activity against Staphylococcus aureus assessed as diameter of inhibition zone at 100 ug/ml by disc diffusion method; type: functional; details: read-out: DIZ
[28] = test system: Escherichia coli; assay: Antibacterial activity against Escherichia coli assessed as diameter of inhibition zone at 100 ug/ml by disc diffusion method; type: functional; details: read-out: DIZ
[29] = test system: Salmonella typhimurium; assay: Antimicrobial activity against Salmonella typhimurium ATCC 19430 assessed as diameter of inhibition zone at 20 mg/ml incubated for 24 hrs by disk diffusion method; type: functional, Salmonella enterica subsp. enterica serovar Typhimurium; details: Salmonella enterica, read-out: DIZ
[30] = test system: Klebsiella pneumoniae; assay: Antimicrobial activity against Klebsiella pneumoniae ATCC 15380 assessed as diameter of inhibition zone at 20 mg/ml incubated for 24 hrs by disk diffusion method; type: functional; details: read-out: DIZ
[31] = test system: Escherichia coli; assay: Antimicrobial activity against Escherichia coli ATCC 25922 assessed as diameter of inhibition zone at 20 mg/ml incubated for 24 hrs by disk diffusion method; type: functional; details: read-out: DIZ
[32] = test system: Staphylococcus aureus; assay: Antibacterial activity against Staphylococcus aureus ATCC6538-P assessed as diameter of inhibition zone at 50 mg/ml incubated for 24 hrs by paper disk diffusion method; type: functional; details: read-out: DIZ
[33] = test system: Escherichia coli; assay: Antibacterial activity against Escherichia coli ATCC 25922 assessed as diameter of inhibition zone at 50 mg/ml incubated for 24 hrs by paper disk diffusion method; type: functional; details: read-out: DIZ
[34] = test system: Aspergillus fumigatus; assay: microbe, parasite or virus in culture; type: functional; details: ATCC204305, dose 50 mg/ml, time 24 hrs, read-out: DIZ
[35] = test system: Candida albicans; assay: Antifungal activity against Candida albicans assessed as diameter of inhibition zone at 100 ug/ml by agar disc diffusion method; type: functional; details: read-out: DIZ
[36] = Antioxidant activity assessed as DPPH radical scavenging activity at 75 ug/ml incubated for 30 mins by spectrophotometric analysis; type: functional; details: dose 75.0 µg/ml
[37] = Antioxidant activity assessed as DPPH radical scavenging activity at 100 ug/ml incubated for 30 mins by spectrophotometric analysis; type: functional; details: dose 100.0 µg/ml
[38] = Antioxidant activity assessed as DPPH radical scavenging activity at 12 ug incubated for 30 mins by spectrophotometric analysis; type: functional; details: dose 12.0 µg
[39] = test system: HepG2; assay: Antiproliferative activity against human HepG2 cells assessed as reduction in cell proliferation; type: functional, cell-based
[40] = test system: MCF7; assay: Antiproliferative activity against human MCF7 cells assessed as reduction in cell proliferation; type: functional, cell-based
[41] = Antiproliferative activity against human […] cells assessed as reduction in cell proliferation; type: functional, cell-based
[42] = test system: Candida albicans; assay: Antifungal activity against Candida albicans assessed as diameter of inhibition zone incubated for 48 hrs by agar well diffusion method; type: functional
[43] = test system: Escherichia coli; assay: Antibacterial activity against Escherichia coli NCIM 2066 assessed as diameter of inhibition zone incubated for 24 hrs by agar well diffusion method; type: functional
[44] = test system: Staphylococcus aureus; assay: Antibacterial activity against Staphylococcus aureus NCIM 2654 assessed as diameter of inhibition zone incubated for 24 hrs by agar well diffusion method; type: functional

Chain of Albumin (P02769 whole entry, the tested form may be a part): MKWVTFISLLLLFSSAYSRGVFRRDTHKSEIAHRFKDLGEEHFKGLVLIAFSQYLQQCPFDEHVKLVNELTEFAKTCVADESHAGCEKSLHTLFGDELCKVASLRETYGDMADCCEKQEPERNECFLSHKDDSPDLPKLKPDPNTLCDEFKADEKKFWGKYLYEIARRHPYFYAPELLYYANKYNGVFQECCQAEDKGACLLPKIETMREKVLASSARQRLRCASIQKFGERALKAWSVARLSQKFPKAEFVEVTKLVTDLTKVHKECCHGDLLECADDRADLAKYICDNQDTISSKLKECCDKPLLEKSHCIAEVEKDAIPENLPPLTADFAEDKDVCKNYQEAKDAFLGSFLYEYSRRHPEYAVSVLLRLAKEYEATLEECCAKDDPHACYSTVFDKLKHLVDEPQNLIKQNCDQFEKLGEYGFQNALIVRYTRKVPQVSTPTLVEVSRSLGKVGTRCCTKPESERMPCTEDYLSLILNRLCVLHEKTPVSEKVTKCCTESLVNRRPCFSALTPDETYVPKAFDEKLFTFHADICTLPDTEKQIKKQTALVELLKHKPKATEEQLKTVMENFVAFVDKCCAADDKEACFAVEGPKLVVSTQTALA
Chain of Urease (P07374 whole entry): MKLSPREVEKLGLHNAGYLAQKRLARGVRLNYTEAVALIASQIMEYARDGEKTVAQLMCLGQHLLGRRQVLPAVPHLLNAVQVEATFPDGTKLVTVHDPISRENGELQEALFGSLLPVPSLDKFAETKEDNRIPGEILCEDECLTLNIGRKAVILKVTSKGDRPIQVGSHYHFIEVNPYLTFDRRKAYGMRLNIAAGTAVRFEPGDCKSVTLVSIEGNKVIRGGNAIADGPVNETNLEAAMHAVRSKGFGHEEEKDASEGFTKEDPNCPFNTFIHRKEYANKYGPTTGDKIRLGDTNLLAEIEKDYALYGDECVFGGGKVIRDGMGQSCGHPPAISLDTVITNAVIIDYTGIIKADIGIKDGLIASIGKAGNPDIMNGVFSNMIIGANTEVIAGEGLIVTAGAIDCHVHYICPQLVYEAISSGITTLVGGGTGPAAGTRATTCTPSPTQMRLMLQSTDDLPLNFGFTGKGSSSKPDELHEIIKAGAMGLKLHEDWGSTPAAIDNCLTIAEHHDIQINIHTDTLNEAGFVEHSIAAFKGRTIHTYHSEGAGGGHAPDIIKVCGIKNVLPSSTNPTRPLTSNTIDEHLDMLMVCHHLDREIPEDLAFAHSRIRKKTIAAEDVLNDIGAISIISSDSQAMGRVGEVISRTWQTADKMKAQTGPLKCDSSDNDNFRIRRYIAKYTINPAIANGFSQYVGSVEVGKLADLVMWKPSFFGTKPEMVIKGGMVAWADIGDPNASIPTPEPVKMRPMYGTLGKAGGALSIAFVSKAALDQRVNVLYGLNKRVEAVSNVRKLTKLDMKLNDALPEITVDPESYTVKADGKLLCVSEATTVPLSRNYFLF

SMILES: COc1ccc(C2C(C#N)=C(N)Oc3[nH]c(=O)[nH]c(=O)c32)cc1 (stereo not given)
- zone of inhibition at 20000 µg/mL [1]: 14 mm
- zone of inhibition at 20000 µg/mL [2]: 5 mm
- zone of inhibition at 20000 µg/mL [3]: 14 mm
- zone of inhibition at 20000 µg/mL [4]: 11 mm
- zone of inhibition at 20000 µg/mL [5]: 8 mm
- IC50 [6]: 2.43 µM
- diameter of the inhibition zone (DIZ) [7]: 10 mm
- MIC [8]: 125 mg/L (≈ 400 µM)
- diameter of the inhibition zone (DIZ) [9]: 8 mm
- MIC [10]: 150 mg/L (≈ 480 µM)
- MIC [11]: 25 mg/L (≈ 80.1 µM)
- diameter of the inhibition zone (DIZ) [12]: 10 mm
- MIC [13]: 162 mg/L (≈ 520 µM)
- diameter of the inhibition zone (DIZ) [14]: 12 mm
- IC50 [15]: 62.9 µM
- MIC [16]: 25 mg/L (≈ 80.1 µM)
- IC50 [17]: 2.61 µM
- IC50 [18]: 2.09 µM

- IC50 [19]: 20.1 µM
- IC50 [21]: 6197 µM
- IC50 [24]: 26 µM
SMILES: O=C(C1=C(c2ccccc2O)Oc2[nH]c(=S)[nH]c(=O)c2C1c1ccccc1O)N1CCCCC1 (stereo not given)
- zone of inhibition at 100 µg/mL [20]: 11.6 mm
- zone of inhibition at 100 µg/mL [22]: 12.2 mm
- zone of inhibition at 100 µg/mL [23]: 10.1 mm

SMILES: CCOC(=O)C1=C(C)Oc2nc(C)n(Cc3cn(-c4cccc(F)c4)nn3)c(=O)c2C1c1ccc([N+](=O)[O-])cc1 (stereo not given)
- zone of inhibition at 100 µg/mL [25]: 14.5 mm
- zone of inhibition at 100 µg/mL [26]: 14.5 mm
- zone of inhibition at 100 µg/mL [27]: 14.5 mm
- zone of inhibition at 100 µg/mL [28]: 15.5 mm

SMILES: N#CC1=C(N)Oc2[nH]c(=O)[nH]c(=O)c2C1c1ccc[nH]1 (stereo not given)
- zone of inhibition at 20000 µg/mL [29]: 20 mm
- zone of inhibition at 20000 µg/mL [30]: 16 mm

SMILES: Cc1ccc(C2C(C#N)=C(N)Oc3[nH]c(=O)[nH]c(=O)c32)s1 (stereo not given)
- zone of inhibition at 20000 µg/mL [2]: 18 mm
- zone of inhibition at 20000 µg/mL [31]: 14 mm
- zone of inhibition at 20000 µg/mL [30]: 16 mm

SMILES: O=c1[nH]cnc2c1C(c1ccc(Cl)cc1)C=C(c1cc3ccccc3oc1=O)O2 (stereo not given)
- zone of inhibition at 50000 µg/mL [32]: 10 mm
- zone of inhibition at 50000 µg/mL [33]: 10 mm
- zone of inhibition at 50000 µg/mL [34]: 10 mm

SMILES: CCOC(=O)C1=C(C)Oc2nc(C)n(Cc3cn(-c4cccc([N+](=O)[O-])c4)nn3)c(=O)c2C1c1ccc([N+](=O)[O-])cc1 (stereo not given)
- zone of inhibition at 100 µg/mL [27]: 16 mm
- zone of inhibition at 100 µg/mL [35]: 16.5 mm
- zone of inhibition at 100 µg/mL [28]: 15 mm

SMILES: N=c1c2c(ncn1N)Oc1[nH]nc(-c3ccccc3)c1C2c1coc2ccccc2c1=O (stereo not given)
- Activity [36]: 85.5%

SMILES: O=C1O[C@H]([C@@H](O)CO)C(O)=C1O
- Activity [37]: 97.6%
- Activity [36]: 89.4%
- Activity [38]: 94.6%

- IC50 [19]: 9.9 µM
- IC50 [21]: 4021 µM
- IC50 [24]: 26.7 µM
SMILES: O=C(C1=C(c2ccccc2O)Oc2[nH]c(=S)[nH]c(=O)c2C1c1ccc(Cl)cc1)N1CCCCC1 (stereo not given)
- zone of inhibition at 100 µg/mL [22]: 14.1 mm
- zone of inhibition at 100 µg/mL [23]: 13.1 mm

- IC50 [39]: 3.41 µM
- IC50 [40]: 2.67 µM
SMILES: N=c1c2c(ncn1-c1ccccc1O)Oc1ccc3ccccc3c1C2c1cn(-c2ccccc2)nc1-c1ccccc1 (stereo not given)
- IC50 [41]: 4.9 µM

SMILES: Cc1ccc(C2c3c(C)n[nH]c3Oc3[nH]c(=O)[nH]c(=O)c32)cc1 (stereo not given)
- diameter of the inhibition zone (DIZ) [42]: 27 mm
- diameter of the inhibition zone (DIZ) [43]: 23 mm
- Activity [38]: 71.9%
- diameter of the inhibition zone (DIZ) [44]: 25 mm
